For test [1], the target named is T1, T. aurantiacus GH61A polypeptide (Thermoascus aurantiacus, UniProt G3XAP7, N13Y). It counts as biochemical. The conditions noted are these: for hydrolysis of AVICEL in the presence of both T. aurantiacus GH61A polypeptide and dioxy compound relative to inhibition by the dioxy compound / dioxy compound effect(no GH61): dioxy compound 1 mM; for hydrolysis of AVICEL in the presence of both T. aurantiacus GH61A polypeptide and dioxy compound relative to inhibition by the dioxy compound: GH61A polypeptide 2 mg per g cellulose, cellulose 29.5 mg per ml; for dioxy compound effect(no GH61): AVICEL 29.5 mg cellulose per ml; for dioxy compound effect(no GH61) (Equation 3), ratio of percent conversion with/without dioxy compound: day 1 to day 8. As for the experimental part: The cellulase preparation is designated herein as “Trichoderma reesei cellulase composition” unless specified otherwise.
Later experiments were mixed thoroughly prior to incubation in an IsoTemp incubator (Fisher Scientific, Hampton, N.H., USA) and prior to sampling for analysis, but were not continuously mixed.
Data were processed using MICROSOFT EXCEL™ software.

The target in test [2] is T1, T. aurantiacus GH61A polypeptide. Kind of test: Microcrystalline cellulose conversion assay II (Examples 10, 11), T. reesei CEL7A cellobiohydrolase I + A. oryzae CEL3A beta-glucosidase. The conditions noted are these: dioxy compound 0.1% w/w alone, no enzymes; 72 hours, 50° C. It counts as biochemical. As for the experimental part:
A 5% microcrystalline cellulose slurry was prepared by addition of 2.5 g of AVICEL® PH101 to a graduated 50 ml screw-cap conical tube followed by approximately 40 ml of deionized water. Each conical tube was then mixed thoroughly by shaking/vortexing, and adjusted to 50 ml total with deionized water and mixed again. For samples containing dioxy compounds, a similar slurry was prepared by the addition of 100 mg of solid dioxy compound and 2.5 g of AVICEL® PH101 to a graduated 50 ml screw-cap conical tube followed by approximately 40 ml of deionized water. Each conical tube was then mixed thoroughly by shaking/vortexing, and adjusted to 50 ml total with deionized water and mixed again.
The dioxy compounds assayed include caffeic acid, dichlorophenolindophenol (DCPIP), ethyl gallate, gallic acid, 3,4-dihydroxybenzoic acid, pyrocatechol, pyrogallol, sinapinic acid (3,5 dimethoxy-4-hydroxy cinnamic acid), and tannic acid.
In all cases, the contents of the tube (5% microcrystalline cellulose slurry with or without 0.2% dioxy compound) were then quickly transferred to a 100 ml beaker and stirred rapidly with a magnetic stirrer. Five hundred μl aliquots of the 5% AVICEL® slurry were pipetted into wells of a 2.0 ml 96-deepwell plate (Axygen, Union City, Calif.) using a 1000 μl micropipette with a wide aperture tip (end of tip cut off about 2 mm from the base). One hundred μl of deionized water and 300 μl of 3.33 mM MnSO4-500 mM sodium acetate pH 5 were then added to each well. Enzyme mixtures were prepared and then added simultaneously to all wells in a volume of 100 μl, for a total of 1 ml in each reaction. […] All experiments reported were performed in triplicate.
Primary analysis of the hydrolysis reactions was performed using an AGILENT® 1100 HPLC with CHEMSTATION® software equipped with an AMINEX™ HPX-87H column. After approximately 4 days, the deep-well plate was removed from the incubator and chilled overnight to 4° C. The plate was then mixed well by inversion and briefly centrifuged at 52×g in a SORVALL® RT7 centrifuge for 10 seconds. Samples were then mixed by pipetting, and 200 μl from each well were transferred to a MULTISCREEN® HV centrifuge filter plate assembly. The centrifuge filter plate assembly was centrifuged at 2000 rpm in a SORVALL® RT7 centrifuge for 20 minutes. […] Sugars were detected using a refractive index detector with quantification by integration compared to purified sugar standards.
All HPLC data processing was performed using MICROSOFT EXCEL™ software. […] In this assay only glucose was measured since beta-glucosidase was at high levels in all samples but the controls. The degree of cellulose conversion was calculated using Equation 1. Triplicate data points were averaged and standard deviation was calculated.
The microcrystalline cellulose hydrolysis assay was performed as described in Example 10.
Data were collected and analyzed, as described in Example 10, after 72 hours of incubation at 50° C.

For test [3], the system named is T. terrestris GH61E polypeptide. Kind of test: Microcrystalline cellulose conversion assay I (Examples 8, 9) with T. terrestris GH61E polypeptide. The test is classed as biochemical, Thielavia terrestris. The conditions noted are these: 96 hours. How it is done:
(§1) A 5% microcrystalline cellulose slurry was prepared by addition of 2.5 g of AVICEL®PH101 (Sigma-Aldrich, St. Louis, Mo., USA) to a graduated 50 ml screw-cap conical tube followed by 15 ml of 1 M sodium acetate pH 5 and 1 ml of 100 mM MnSO4 and approximately 20 ml of deionizer water. Each conical tube was then mixed thoroughly by shaking/vortexing, and adjusted to 50 ml total with deionized water and mixed again. Contents of the tube were then quickly transferred to a 100 ml beaker and stirred rapidly with a magnetic stirrer. Five hundred μl aliquots of the 5% AVICEL® slurry were pipetted into wells of a 2.0 ml 96-deepwell plate (Axygen, Union City, Calif., USA) using a 1000 μl micropipette with a wide aperture tip (end of tip cut off about 2 mm from the base). Three hundred μl of either deionized water or a 1% dioxy compound solution (dissolved in deionized water) was added to each well.
(§2) The dioxy compounds assayed include caffeic acid (Sigma-Aldrich, St. Louis, Mo., USA), dichlorophenolindophenol (DCPIP; Sigma-Aldrich, St. Louis, Mo., USA), ethyl gallate (Sigma-Aldrich, St. Louis, Mo., USA), gallic acid (Sigma-Aldrich, St. Louis, Mo., USA), 3,4-dihydroxybenzoic acid (Sigma-Aldrich, St. Louis, Mo., USA), pyrocatechol (Sigma-Aldrich, St. Louis, Mo., USA), pyrogallol (Sigma-Aldrich, St. Louis, Mo., USA), sinapinic acid (3,5 dimethoxy-4-hydroxy cinnamic acid; Apin Chemicals LTD, Abingdon, UK), and tannic acid (Sigma-Aldrich, St. Louis, Mo., USA).
(§3) Enzyme mixtures were prepared and then added simultaneously to all wells in a volume of 200 μl, for a total of 1 ml in each reaction. […] All experiments reported were performed in triplicate.
(§4) After approximately 4 days, the deep-well plate was removed from the incubator and chilled overnight to 4° C. The plate was then mixed well by inversion and briefly centrifuged at 52×g in a SORVALL® RT7 centrifuge (Thermo Fisher Scientific, Waltham, Mass., USA) for 10 seconds. Samples were then mixed by pipetting, and 200 μl from each well were transferred to a MULTISCREEN® HV centrifuge filter plate assembly (Millipore, Bedford, Mass., USA). The centrifuge filter plate assembly was centrifuged at 2000 rpm in a SORVALL® RT7 centrifuge for 20 minutes. […] Sugars were detected using a refractive index detector (Agilent Technologies, Inc., Santa Clara, Calif., USA) with quantification by integration compared to purified sugar standards.
(§5) In this assay only glucose was measured since beta-glucosidase was at high levels in all samples but the controls.
(§6) A limit digest was performed to determine the total concentration accessible glucose equivalents using 100 mg of T. reesei cellulase (CELLIC™ CTec, Novozymes A/S, Bagsvaerd, Denmark) per gram cellulose, Triplicate data points were averaged and standard deviation was calculated.

Test [4] deals with T. aurantiacus CEL5A endoglucanase II and P. brasilianum CEL3A beta-glucosidase. Kind of test: Microcrystalline cellulose conversion assay I (Examples 8, 9) without GH61 polypeptide. The conditions noted are these: dioxy compound 0.3% w/w + endoglucanase II + beta-glucosidase (5 mg/g each), no GH61; 96 hours, at either 50° C. or 60° C. The test is classed as biochemical, Thermoascus aurantiacus; Penicillium brasilianum. How it is done:
as §1, §2, §3, §4, §5, §6

The mark [5] stands for this setting: AVICEL 14 mg cellulose per ml, dioxy compound 5 mM, T. aurantiacus GH61A polypeptide 0.4 mg per g cellulose, 1, 3, and 7 days.
Where [6] appears, read: AVICEL, T. reesei cellulase composition, dioxy compound 5 mM, T. aurantiacus GH61A polypeptide present, day 1.
Where [7] appears, read: AVICEL, T. reesei cellulase composition, dioxy compound 5 mM, T. aurantiacus GH61A polypeptide present, day 5.
[8] abbreviates: AVICEL, T. reesei cellulase composition, dioxy compound 5 mM, T. aurantiacus GH61A polypeptide present, day 8.
[9] abbreviates: AVICEL, T. reesei cellulase composition, dioxy compound 5 mM.
Setting [10] is: AVICEL, T. reesei cellulase composition, dioxy compound 5 mM, day 5 (Example 24).

Read-outs that look alike come from different tables or passages of the source.

T1 sequence (G3XAP7 whole entry N13Y): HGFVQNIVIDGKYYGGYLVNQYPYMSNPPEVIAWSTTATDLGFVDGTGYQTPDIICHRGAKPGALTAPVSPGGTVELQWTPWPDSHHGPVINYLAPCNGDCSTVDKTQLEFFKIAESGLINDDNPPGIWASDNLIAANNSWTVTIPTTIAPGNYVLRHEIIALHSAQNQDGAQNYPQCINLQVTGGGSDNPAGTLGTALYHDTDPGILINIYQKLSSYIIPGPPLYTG

Regarding `OCCCO` [1,3-propanediol], the “dioxy compound effect(+GH61) (Equation 4)” value (“dioxy compound effect(+GH61)” below) in test [1] (setting [5]) is recorded as “greater than 1”. For the same molecule, the “GH61 effect (Equation 5)” value in test [1] (AVICEL 14 mg cellulose per ml, dioxy compound 5 mM, T. aurantiacus GH61A polypeptide 0.4 mg per g cellulose, 1, 3, and 7 days, increasing as hydrolysis progressed) is “greater than 1”. In addition, the “dioxy compound effect(no GH61) (Equation 3)” value in test [1] (AVICEL 14 mg cellulose per ml, dioxy compound 5 mM, 1, 3, and 7 days, especially early stages) is on record as “greater than 1”.

As to `CC(O)CC(C)O` (stereo not shown) [2,4-pentanediol], in test [1] (setting [5]), the “dioxy compound effect(+GH61)” value was “greater than 1”. For the same molecule, the “GH61 effect (Equation 5)” value in test [1] (AVICEL 14 mg cellulose per ml, dioxy compound 5 mM, T. aurantiacus GH61A polypeptide 0.4 mg per g cellulose, later hydrolysis stages (day 7)) was “greater than 1”. For the same molecule, the “dioxy compound effect(no GH61) (Equation 3)” value in test [1] (AVICEL 14 mg cellulose per ml, dioxy compound 5 mM, day 1) is given as “greater than 1”.

`COc1cccc(OC)c1O` [2,6-dimethoxyphenol]: the “hydrolysis of AVICEL in the presence of both T. aurantiacus GH61A polypeptide and dioxy compound relative to inhibition by the dioxy compound” value in test [1] is listed as “overall enhancement of cellulolysis”.

For `O=C(O)c1ccc(O)c(O)c1` [3,4-dihydroxybenzoic acid], the “conversion (hydrolysis) of the microcrystalline cellulose” value in test [2] is recorded as “no significant hydrolysis”.

Turning to `CCOCC(O)CO` (stereo not shown) [3-ethoxy-1,2-propanediol, 3-ethyoxy-1,2-propanediol], the “dioxy compound effect(no GH61)” value amounted to 1.11±0.0167 in test [1] (3 days) and 1.20±0.0210 in test [1] (7 days).

As for `Oc1ccc(Cl)cc1O` [4-chloro-1,2-benzenediol], the “dioxy compound effect(+GH61)” value in test [1] (setting [6]) is listed as “increased”; in test [1] (setting [7]), “less than 1”; in test [1] (setting [8]), “less than 1”. In test [1] (setting [9]), the “dioxy compound effect(no GH61) (Equation 3), ratio of percent conversion with/without dioxy compound” value is listed as “less than 1”. Moreover, the “GH61 effect (Equation 5), ratio of percent conversion with/without GH61 polypeptide” value in test [1] (AVICEL, T. reesei cellulase composition, dioxy compound 5 mM, day 1 (Example 24)) was “greater than 1”. Besides, in test [1] (setting [10]), the “GH61 effect (Equation 5)” value is “greater than 1”.

In the case of `O=[N+]([O-])c1ccc(O)c(O)c1` [4-nitro-1,2-benzenediol], the “dioxy compound effect(+GH61)” value in test [1] (setting [6]), in test [1] (setting [7]) and in test [1] (setting [8]) was “less than 1” throughout. Besides, the “dioxy compound effect(no GH61) (Equation 3), ratio of percent conversion with/without dioxy compound” value in test [1] (setting [9]) was “less than 1”. Further, the “GH61 effect (Equation 5)” value in test [1] (setting [10]) is “greater than 1”; in test [1] (AVICEL, T. reesei cellulase composition, dioxy compound 5 mM, day 8 (Example 24)), “greater than 1”.

With `O=C1C=CC(=Nc2cc(Cl)c(O)c(Cl)c2)C=C1` [DCPIP, dichlorophenolindophenol], the “conversion (hydrolysis) of the microcrystalline cellulose” value in test [2] is reported as “no significant hydrolysis”.

For the molecule `COC(=O)c1ccc(O)cc1` [methyl-4-hydroxybenzoate], in test [1], the “hydrolysis of AVICEL in the presence of both T. aurantiacus GH61A polypeptide and dioxy compound relative to inhibition by the dioxy compound” value was “overall enhancement of cellulolysis”.

In the case of `COc1cc(C=CC(=O)O)cc(OC)c1O` [sinapinic acid, 3,5 dimethoxy-4-hydroxy cinnamic acid], the “conversion of microcrystalline cellulose” value is 6.3±0.1% in test [3] (dioxy compound 0.3% w/w + T. terrestris GH61E polypeptide (10 mg/g) + endoglucanase II + beta-glucosidase (5 mg/g each), 50° C.) and 9.2±0.1% in test [3] (dioxy compound 0.3% w/w + T. terrestris GH61E polypeptide (10 mg/g) + endoglucanase II + beta-glucosidase (5 mg/g each), 60° C.). Besides, the “change in conversion of microcrystalline cellulose compared to the enzymes in the absence of the dioxy compound” value in test [4] is “no significant change”.

For the molecule `O=C(O)C(O)C(O)C(=O)O` (stereo not shown) [tartrate, tartaric acid], the “dioxy compound effect(no GH61)” value in test [1] (3 days) is 0.984±0.00843; in test [1] (7 days) it was 1.02±0.0573.

B1: T. terrestris GH61E polypeptide: GH61E polypeptide having cellulolytic enhancing activity (SEQ ID NO: 8), recombinantly produced in Aspergillus oryzae JaL250 (protein, listed as Thielavia terrestris)
chain: MLANGAIVFLAAALGVSGHYTWPRVNDGADWQQVRKADNWQDNGYVGDVTSPQIRCFQATPSPAPSVLNTTAGSTVTYWANPDVYHPGPVQFYMARVPDGEDINSWNGDGAVWFKVYEDHPTFGAQLTWPSTGKSSFAVPIPPCIKSGYYLLRAEQIGLHVAQSVGGAQFYISCAQLSVTGGGSTEPPNKVAFPGAYSATDPGILINIYYPVPTSYQNPGPAVFSC
B1: the “conversion of microcrystalline cellulose” value in test [3] (T. terrestris GH61E polypeptide (10 mg per g cellulose) + endoglucanase II + beta-glucosidase (5 mg/g each), no dioxy compound, 50° C.) amounted to 2.8±0.1%; in test [3] (T. terrestris GH61E polypeptide (10 mg per g cellulose) + endoglucanase II + beta-glucosidase (5 mg/g each), no dioxy compound, 60° C.) it was 3.1±0.1%.

The values above are taken from patent publication US9394555B2, “Compositions comprising a polypeptide having cellulolytic enhancing activity and a dioxy compound and uses thereof” (priority 2010, dated 2016).
